Measured values: ChEMBL document CHEMBL4414655, “Position Effect of Fatty Acid Modification on the Cytotoxicity and Antimetastasis Potential of the Cytotoxic Peptide Lycosin-I” (J Med Chem, 2019)
Active and inactive are the calls of the source. The calls are words filed in the database; no cut-off is given here. Residues, ends and D or L forms follow the SMILES beside them. *: point of attachment. Lauroyl = CCCCCCCCCCCC(=O)*

Assays:
HEK-293T = experiment: Cytotoxicity in human HEK293T cells assessed as reduction in cell viability incubated for 24 hrs by CCK8 assay; assay type: cell-based; conditions: human, hek-293t
A549 [1] = experiment: Induction of cell membrane disruption in human A549 cells assessed as LDH release at 3.25 uM incubated for 30 mins by fluorescence based assay relative to control
Homo sapiens = species: Homo sapiens; experiment: Induction of cell membrane disruption in human erythrocytes cells assessed as induction of hemolysis at 0.098 to 50 uM incubated for 1 hr by fluorescence based assay relative to control; assay type: cell membranes
A549 [2] = experiment: Cytotoxicity in human A549 cells assessed as reduction in cell viability incubated for 24 hrs by CCK8 assay; assay type: functional, cell-based; conditions: A549, 24 h
B16-F10 = experiment: Cytotoxicity in mouse B16/F10 cells assessed as reduction in cell viability incubated for 24 hrs by CCK8 assay; assay type: functional, cell-based; conditions: B16-F10, 24 h
A549 [3] = experiment: Potency index, ratio of IC50 for lycosin-I to IC50 for test compound for cytotoxicity in human A549 cells assessed as reduction in cell viability at 0.78 to 50 uM incubated for 24 hrs by CCK8 assay; assay type: functional
A549 [4] = experiment: Cytotoxicity in human A549 cells assessed as reduction in cell viability by trypan blue staining method; assay type: functional, cell-based

Row | Structure (SMILES) | Activity (HEK-293T) | Activity (A549 [1]) [%] | Activity (Homo sapiens) | IC50 (A549 [2]) [µM] | IC50 (B16-F10) [µM] | Ratio IC50 (A549 [3]) | Activity (A549 [4])
1 | CCCCCCCCCCCC(=O)NCCCC[C@H](N)C(=O)NCC(=O)N[C@@H](Cc1c[nH]c2ccccc12)C(=O)N[C@@H](Cc1ccccc1)C(=O)N[C@@H](CCCCN)C(=O)N[C@@H](C)C(=O)N[C@@H](CCSC)C(=O)N[C@@H](CCCCN)C(=O)N[C@@H](CO)C(=O)N[C@H](C(=O)N[C@@H](C)C(=O)N[C@@H](CCCCN)C(=O)N[C@@H](Cc1ccccc1)C(=O)N[C@H](C(=O)N[C@@H](C)C(=O)N[C@@H](CCCCN)C(=O)N[C@@H](CCC(=O)O)C(=O)N[C@@H](CCCCN)C(=O)N[C@@H](CC(C)C)C(=O)N[C@@H](CCCCN)C(=O)N[C@@H](CCC(=O)O)C(=O)N[C@@H](Cc1cnc[nH]1)C(=O)N[C@@H](CC(C)C)C(=O)O)[C@@H](C)CC)[C@@H](C)CC (H-K(Lauroyl)GWFKAMKSIAKFIAKEKLKEHL-OH) | Toxic | 51.3 | Active | 3.1 | 2 | 4 - 15 | Active
2 | CCCCCCCCCCCC(=O)NCCCC[C@H](NC(=O)[C@H](Cc1ccccc1)NC(=O)[C@H](Cc1c[nH]c2ccccc12)NC(=O)CNC(=O)[C@@H](N)CCCCN)C(=O)N[C@@H](C)C(=O)N[C@@H](CCSC)C(=O)N[C@@H](CCCCN)C(=O)N[C@@H](CO)C(=O)N[C@H](C(=O)N[C@@H](C)C(=O)N[C@@H](CCCCN)C(=O)N[C@@H](Cc1ccccc1)C(=O)N[C@H](C(=O)N[C@@H](C)C(=O)N[C@@H](CCCCN)C(=O)N[C@@H](CCC(=O)O)C(=O)N[C@@H](CCCCN)C(=O)N[C@@H](CC(C)C)C(=O)N[C@@H](CCCCN)C(=O)N[C@@H](CCC(=O)O)C(=O)N[C@@H](Cc1cnc[nH]1)C(=O)N[C@@H](CC(C)C)C(=O)O)[C@@H](C)CC)[C@@H](C)CC (H-KGWFK(Lauroyl)AMKSIAKFIAKEKLKEHL-OH) | Toxic | 23.1 | Active | 7.7 | 2 | 4 - 15 | Active
3 | CCCCCCCCCCCC(=O)NCCCC[C@H](NC(=O)[C@H](CCSC)NC(=O)[C@H](C)NC(=O)[C@H](CCCCN)NC(=O)[C@H](Cc1ccccc1)NC(=O)[C@H](Cc1c[nH]c2ccccc12)NC(=O)CNC(=O)[C@@H](N)CCCCN)C(=O)N[C@@H](CO)C(=O)N[C@H](C(=O)N[C@@H](C)C(=O)N[C@@H](CCCCN)C(=O)N[C@@H](Cc1ccccc1)C(=O)N[C@H](C(=O)N[C@@H](C)C(=O)N[C@@H](CCCCN)C(=O)N[C@@H](CCC(=O)O)C(=O)N[C@@H](CCCCN)C(=O)N[C@@H](CC(C)C)C(=O)N[C@@H](CCCCN)C(=O)N[C@@H](CCC(=O)O)C(=O)N[C@@H](Cc1cnc[nH]1)C(=O)N[C@@H](CC(C)C)C(=O)O)[C@@H](C)CC)[C@@H](C)CC (H-KGWFKAMK(Lauroyl)SIAKFIAKEKLKEHL-OH) | Toxic | 25.7 | Active | 7.3 | 2 | 4 - 15 | Active
4 | CCCCCCCCCCCC(=O)NCCCC[C@H](NC(=O)[C@H](C)NC(=O)[C@@H](NC(=O)[C@H](CO)NC(=O)[C@H](CCCCN)NC(=O)[C@H](CCSC)NC(=O)[C@H](C)NC(=O)[C@H](CCCCN)NC(=O)[C@H](Cc1ccccc1)NC(=O)[C@H](Cc1c[nH]c2ccccc12)NC(=O)CNC(=O)[C@@H](N)CCCCN)[C@@H](C)CC)C(=O)N[C@@H](Cc1ccccc1)C(=O)N[C@H](C(=O)N[C@@H](C)C(=O)N[C@@H](CCCCN)C(=O)N[C@@H](CCC(=O)O)C(=O)N[C@@H](CCCCN)C(=O)N[C@@H](CC(C)C)C(=O)N[C@@H](CCCCN)C(=O)N[C@@H](CCC(=O)O)C(=O)N[C@@H](Cc1cnc[nH]1)C(=O)N[C@@H](CC(C)C)C(=O)O)[C@@H](C)CC (H-KGWFKAMKSIAK(Lauroyl)FIAKEKLKEHL-OH) | Toxic | 38.5 | Active | 4.9 | 2 | 4 - 15 | Active
5 | CCCCCCCCCCCC(=O)NCCCC[C@H](NC(=O)[C@H](C)NC(=O)[C@@H](NC(=O)[C@H](Cc1ccccc1)NC(=O)[C@H](CCCCN)NC(=O)[C@H](C)NC(=O)[C@@H](NC(=O)[C@H](CO)NC(=O)[C@H](CCCCN)NC(=O)[C@H](CCSC)NC(=O)[C@H](C)NC(=O)[C@H](CCCCN)NC(=O)[C@H](Cc1ccccc1)NC(=O)[C@H](Cc1c[nH]c2ccccc12)NC(=O)CNC(=O)[C@@H](N)CCCCN)[C@@H](C)CC)[C@@H](C)CC)C(=O)N[C@@H](CCC(=O)O)C(=O)N[C@@H](CCCCN)C(=O)N[C@@H](CC(C)C)C(=O)N[C@@H](CCCCN)C(=O)N[C@@H](CCC(=O)O)C(=O)N[C@@H](Cc1cnc[nH]1)C(=O)N[C@@H](CC(C)C)C(=O)O (H-KGWFKAMKSIAKFIAK(Lauroyl)EKLKEHL-OH) | Toxic | 34.6 | Active | 4.6 | 2 | 4 - 15 | Active
6 | CCCCCCCCCCCC(=O)NCCCC[C@H](NC(=O)[C@H](CCC(=O)O)NC(=O)[C@H](CCCCN)NC(=O)[C@H](C)NC(=O)[C@@H](NC(=O)[C@H](Cc1ccccc1)NC(=O)[C@H](CCCCN)NC(=O)[C@H](C)NC(=O)[C@@H](NC(=O)[C@H](CO)NC(=O)[C@H](CCCCN)NC(=O)[C@H](CCSC)NC(=O)[C@H](C)NC(=O)[C@H](CCCCN)NC(=O)[C@H](Cc1ccccc1)NC(=O)[C@H](Cc1c[nH]c2ccccc12)NC(=O)CNC(=O)[C@@H](N)CCCCN)[C@@H](C)CC)[C@@H](C)CC)C(=O)N[C@@H](CC(C)C)C(=O)N[C@@H](CCCCN)C(=O)N[C@@H](CCC(=O)O)C(=O)N[C@@H](Cc1cnc[nH]1)C(=O)N[C@@H](CC(C)C)C(=O)O (H-KGWFKAMKSIAKFIAKEK(Lauroyl)LKEHL-OH) | Toxic | 40.2 | Active | 5.1 | 2 | 4 - 15 | Active
7 | CCCCCCCCCCCC(=O)NCCCC[C@H](NC(=O)[C@H](CC(C)C)NC(=O)[C@H](CCCCN)NC(=O)[C@H](CCC(=O)O)NC(=O)[C@H](CCCCN)NC(=O)[C@H](C)NC(=O)[C@@H](NC(=O)[C@H](Cc1ccccc1)NC(=O)[C@H](CCCCN)NC(=O)[C@H](C)NC(=O)[C@@H](NC(=O)[C@H](CO)NC(=O)[C@H](CCCCN)NC(=O)[C@H](CCSC)NC(=O)[C@H](C)NC(=O)[C@H](CCCCN)NC(=O)[C@H](Cc1ccccc1)NC(=O)[C@H](Cc1c[nH]c2ccccc12)NC(=O)CNC(=O)[C@@H](N)CCCCN)[C@@H](C)CC)[C@@H](C)CC)C(=O)N[C@@H](CCC(=O)O)C(=O)N[C@@H](Cc1cnc[nH]1)C(=O)N[C@@H](CC(C)C)C(=O)O (H-KGWFKAMKSIAKFIAKEKLK(Lauroyl)EHL-OH) | Toxic | 36.6 | Active | 5 | 2 | 4 - 15 | Active
